In patent US7390870B2, “Immune-enhancing peptides” (Posco, priority 2001, dated 2008):
No end group written: not given here.

Columns and labels:
Assay type in all cases: cell-based
[1] = tested on: Jurkat human T cell leukemia cells; assay: [Ca2+]i increase in Jurkat cells (fura-2); conditions: FIG. 4A; MFYLPM up to 30 μM
Method: (§1) The level of [Ca^2+]i was determined by Grynkiewicz's method using fura-2/AM (21). Briefly, prepared cells were incubated with 3 μM fura-2/AM at 37° C. for 50 minutes in a fresh serum-free RPMI 1640 medium under continuous stirring. 2×10^6 cells were aliquoted for each assay in Ca^2+-free Locke's solution (154 mM NaCl, 5.6 mM KCl1.2 mM MgCl2, 5 mM HEPES, pH 7.3, 10 mM glucose, and 0.2 mM EGTA). The fluorescence changes at the dual excitation wavelengths of 340 nm and 380 nm and the emission wavelength of 500 nm were measured, and the calibrated fluorescence ratio was translated into [Ca^2+]i.
(§2) From the fact that HFYLPM, MFYLPM, and HFYLPm stimulate human monocytes, effects of the peptides on other leukocytes such as neutrophils were evaluated. Prepared human primary monocytes, neutrophils, cultured HL60, Jurkat, U937, NIH3T3, 3Y1, 3T3L1, and PC12 cells were loaded with fura-2 and stimulated with effective concentrations of the three peptides (1 μM for monocyte and neutrophil; 10 μM for HL60 and Jurkat; 20 μM for U937, NIH3T3, 3Y1, 3T3L1, and PC12). The peak level of the [Ca^2+]i increase was recorded and superoxide generation was measured using cytochrome c reduction assay. The results are shown FIG. 4. The data of FIG. 4 are presented as means ±S.E. from at least three independent experiments.

[2] = tested on: NIH3T3 (NIH Swiss mouse embryo fibroblast); assay: [Ca2+]i rise in NIH3T3 cells (fura-2); conditions: FIG. 4A; 20 μM peptide
Method: as §1, §2

[3] = tested on: 3Y1 (Rat embryonic fibroblast); assay: [Ca2+]i rise in 3Y1 cells (fura-2); conditions: FIG. 4A; 20 μM peptide
Method: as §1, §2

[4] = tested on: PC12 (rat adrenal pheochromocytoma); assay: [Ca2+]i rise in PC12 cells (fura-2); conditions: FIG. 4A; 20 μM peptide
Method: as §1, §2

human neutrophil = assay: Chemotaxis assay, human neutrophils (multiwell chamber); conditions: similar concentrations as for monocyte migration
Method: (§3) Chemotaxis assays of the peptide were performed using multiwell chambers (Neuroprobe Inc., Gaithersburg, Md.) (20). Briefly, the prepared isolated human monocytes were suspended in RPMI at a concentration of 1×10^6 cells/ml of serum-free RPMI, and 25 □ of the suspension were placed onto the upper well of a 96-well chemotaxis chamber that was separated by a […] filter with a 5 □ pore size (3 □ diameter pores not coated with polyvinylpyrrolidone for neutrophils) from peptides or an fMLF-containing lower well. After incubation for 2 hours (90 minutes for neutrophils) at 37° C., non-migrated cells were removed by scraping them out, and cells that migrated across the filter were dehydrated, fixed, and stained with hematoxylin (Sigma, St. Louis, Mo.). The stained cells in five randomly chosen high power fields (HPF) (400×) in that well were then counted (21). The numbers of migrated cells were determined by counting them in a high power field (400×). For a checkboard analysis, cells were re-suspended in RPMI containing various concentrations of the peptide just before transferring them to the upper wells as described before (22).

human monocytes = assay: Checkboard analysis of monocyte migration across polycarbonate membrane; conditions: 2 hr
Method: as §3
To distinguish whether the peptide-induced monocyte migration is chemotaxis or chemokinesis, a checkboard analysis was performed as described above (22, 26).

With “Met-Phe-Tyr-Leu-Pro-Met-CONH2 (MFYLPM-NH2)” the “intracellular calcium mobilization in Jurkat cells” value [1] was “did not cause a similar intracellular calcium mobilization”, the “[Ca2+]i rise in NIH3T3 cells” value [2] was “no response” and the “[Ca2+]i rise in 3Y1 cells” value [3] was “no response”. For the same substance, the “[Ca2+]i rise in PC12 cells” value [4] was “no response”, the “cellular migration in human neutrophil” value (human neutrophil) was “induced cellular migration” and the “migrated monocytes in 5 HPF” value (human monocytes; peptide below 0 nM, above 10 nM) was 11.3 ± 2.42. For the same substance, the “migrated monocytes in 5 HPF” value (human monocytes; peptide below 0 nM, above 100 nM) was 15.0 ± 3.50, the “migrated monocytes in 5 HPF” value (human monocytes; peptide below 0 nM, above 1000 nM) was 11.0 ± 2.67 and the “migrated monocytes in 5 HPF” value (human monocytes; peptide below 10 nM, above 0 nM) was 198 ± 32.3. The “migrated monocytes in 5 HPF” value (human monocytes; peptide below 10 nM, above 10 nM) was 33.7 ± 8.93, the “migrated monocytes in 5 HPF” value (human monocytes; peptide below 10 nM, above 100 nM) was 16.0 ± 3.16 and the “migrated monocytes in 5 HPF” value (human monocytes; peptide below 10 nM, above 1000 nM) was 12.3 ± 3.43. For the same substance, the “migrated monocytes in 5 HPF” value (human monocytes; peptide below 100 nM, above 0 nM) was 557 ± 29.5, the “migrated monocytes in 5 HPF” value (human monocytes; peptide below 100 nM, above 10 nM) was 425 ± 48.3 and the “migrated monocytes in 5 HPF” value (human monocytes; peptide below 100 nM, above 100 nM) was 66.3 ± 14.9. For the same substance, the “migrated monocytes in 5 HPF” value (human monocytes; peptide below 100 nM, above 1000 nM) was 18.0 ± 4.05, the “migrated monocytes in 5 HPF” value (human monocytes; peptide below 1000 nM, above 0 nM) was 484 ± 43.6 and the “migrated monocytes in 5 HPF” value (human monocytes; peptide below 1000 nM, above 10 nM) was 395 ± 38.5. For the same substance, the “migrated monocytes in 5 HPF” value (human monocytes; peptide below 1000 nM, above 100 nM) was 198 ± 26.7 and the “migrated monocytes in 5 HPF” value (human monocytes; peptide below 1000 nM, above 1000 nM) was 76.7 ± 18.9.
